Like-named read-outs stand apart in the source and are kept apart here.
Columns and labels:
Type in all cases: cell-based
HiBiT-tagged IKZF1 [1] = molecular target: T1, HiBiT-tagged IKZF1 (Homo sapiens, UniProt Q13422+Q96SW2); experiment: Degradation assay for IKZF1 (HiBiT tag bioluminescence assay)
T1 construct: expressed in transfected cells; host or cells: HT-1080 (ATCC CCL-121), lentiviral transduction
Protocol: (§1) About 10,000 cells in complete DMEM cell culture media were seeded per well. Assay plates were incubated at 37° C. with 5% CO2 for hours, followed by the assessment of IKZF1 or SALL4 degradation using the Nano-Glo HiBiT Lytic Detection Reagent (Cat #N3050, Promega) according to the manufacturer's instruction. Luminescence was then measured with an EnVision plate reader (PerkinElmer) or a PHERAstar plate reader (BMG Labtech). All IKZF1 or SALL4 degradation curves were processed using Collaborative Drug Discovery Vault softwares. IKZF1 or SALL4 levels in compound-treated wells were normalized to that of DMSO control and expressed as Percent of Control (PoC, y). A four Parameter Logistic Model was used to determine the compound's EC50 and DC50, using the following equation:
(§2) A=Ymin (lowest IKZF1 or SALL4 level normalized to DMSO control in response to compound treatment, as determined by curve fit)
(§3) B=Ymax (IKZF1 or SALL4 level in DMSO control)
(§4) C=EC50 half degradation concentration
(§5) EC50=the concentration of compound when y=(Ymax−Ymin)/2
(§6) DC50=test sample concentration when IKZF1 or SALL4 readings y=50% DMSO-treated samples
(§7) y=IKZF1 or SALL4 readings after test sample treatment (normalized to IKZF1 or SALL4 readings in DMSO-treated samples)
(§8) Dmax represents the maximum percentage of IKZF1 or SALL4 protein degradation induced by compound treatment.

HiBiT-tagged SALL4 = molecular target: T2, HiBiT-tagged SALL4 (Homo sapiens, UniProt Q96SW2+Q9UJQ4); experiment: Degradation assay for SALL4 (HiBiT tag bioluminescence assay)
T2 construct: expressed in transfected cells; host or cells: HT-1080 (ATCC CCL-121), lentiviral transduction
Protocol: as §1, §2, §3, §4, §5, §6, §7, §8

HiBiT-tagged IKZF1 [2] = molecular target: T1, HiBiT-tagged IKZF1; experiment: IKZF1 protein degradation kinetics (IKZF1 HiBiT degradation assay, incubation 1, 2 or 4 hours)
From the text: The following is a general method for testing compounds-induced degradation of HiBiT-tagged IKZF1 or SALL4 overexpressed in a human cell line, for example, the HT-1080 cell line (American Type Culture Collection (ATCC), catalog number CCL-121). The HT-1080 IKZF1 (or SALL4) HiBiT reporter cell line was engineered via lentiviral transduction to stably overexpress GSPT1 (Δ1-138)/G575N and HiBiT-tagged IKZF1 or SALL4. The HT-1080 IKZF1 (or SALL4) HiBiT reporter cell line was maintained in DMEM media supplemented with 10% fetal bovine serum, IX sodium pyruvate, 1× non-essential amino acids, IX glutamine, 100 U/ml penicillin, and 100 μg/mL streptomycin. The HT-1080 IKZF1 (or SALL4) HiBiT reporter cells were seeded into 384-well plates (Cat #3764, Corning) pre-spotted with DMSO or test compounds. Increasing concentrations of test compounds (ranging from 15.81 pM to 500 nM or from 0.3162 nM to 10 μM at a 3.162-fold increment) or DMSO were dispensed into an empty 384-well plate using an Echo 650 Acoustic Liquid Handler (Beckman Coulter). About 10,000 cells in complete DMEM cell culture media were seeded per well. Assay plates were incubated at 37° C. with 5% CO2 for hours, followed by the assessment of IKZF1 or SALL4 degradation using the Nano-Glo HiBiT Lytic Detection Reagent (Cat #N3050, Promega) according to the manufacturer's instruction. Luminescence was then measured with an EnVision plate reader (PerkinElmer) or a PHERAstar plate reader (BMG Labtech). All IKZF1 or SALL4 degradation curves were processed using Collaborative Drug Discovery Vault softwares. IKZF1 or SALL4 levels in compound-treated wells were normalized to that of DMSO control and expressed as Percent of Control (PoC, y). A four Parameter Logistic Model was used to determine the compound's EC50 and DC50, using the following equation: […]
The IKZF1 protein degradation kinetics of compounds 9-B and 9-A was evaluated using the IKZF1 HiBiT degradation assay as described above except that the incubation time was changed to 1, 2 or 4 hours.

MM.1S cells = experiment: MM.1S cell proliferation assay (CellTiter-Glo)
Protocol: About 3,000 cells in 50 μL of culture medium were seeded per well. Assay plates were incubated at 37° C. with 5% CO2 for 120 hours. After that, 20 μL of the CellTiter-Glo Luminescent Cell Viability Assay Reagent (Cat #G7573, Promega) was added to each well and incubated at room temperature for 30 minutes. Luminescence was then measured with an EnVision plate reader (PerkinElmer) or a PHERAstar plate reader (BMG LABTECH). All percentage of cell growth inhibition curves were processed using Collaborative Drug Discovery Vault softwares. Cell viability reads in compound-treated wells were normalized to that of DMSO control and expressed as Percent of Control (PoC, y). A four Parameter Logistic Model was used to determine the compound's EC50 and DC50, using the following equation:
[formula] • wherein, • A=Ymin (lowest cell viability read normalized to DMSO control in response to compound treatment, as determined by curve fit) • B=Ymax (the maximum value, cell viability read in DMSO control) • C=EC50 half inhibitory concentration • D=Hill Slope • x=compound concentration
as §5
y=cell viability read normalized to DMSO control

[3] = HT-1080, Table 1; HT-1080 IKZF1 HiBiT reporter cells; maximum percentage of protein degradation
[4] = HT-1080, Table 2; HT-1080 IKZF1 HiBiT reporter cells; all compounds tested on the same day
[5] = Table 1; HT-1080 IKZF1 HiBiT reporter cells; performed once with technical duplicates, some compounds tested on different days; read-out: HiBiT IKZF1: DC50
[6] = Table 2; HT-1080 IKZF1 HiBiT reporter cells; all compounds tested on the same day; read-out: HiBiT IKZF1: DC50
[7] = HT-1080, Table 1; HT-1080 SALL4 HiBiT reporter cells; maximum percentage of protein degradation
[8] = HT-1080, Table 2; HT-1080 SALL4 HiBiT reporter cells; all compounds tested on the same day
[9] = Table 1; HT-1080 SALL4 HiBiT reporter cells; performed once with technical duplicates, some compounds tested on different days; read-out: HiBiT SALL4: DC50
[10] = Table 2; HT-1080 SALL4 HiBiT reporter cells; all compounds tested on the same day; read-out: HiBiT SALL4: DC50
[11] = after 1 hour of compound incubation

T2 sequence (Q9UJQ4 whole entry): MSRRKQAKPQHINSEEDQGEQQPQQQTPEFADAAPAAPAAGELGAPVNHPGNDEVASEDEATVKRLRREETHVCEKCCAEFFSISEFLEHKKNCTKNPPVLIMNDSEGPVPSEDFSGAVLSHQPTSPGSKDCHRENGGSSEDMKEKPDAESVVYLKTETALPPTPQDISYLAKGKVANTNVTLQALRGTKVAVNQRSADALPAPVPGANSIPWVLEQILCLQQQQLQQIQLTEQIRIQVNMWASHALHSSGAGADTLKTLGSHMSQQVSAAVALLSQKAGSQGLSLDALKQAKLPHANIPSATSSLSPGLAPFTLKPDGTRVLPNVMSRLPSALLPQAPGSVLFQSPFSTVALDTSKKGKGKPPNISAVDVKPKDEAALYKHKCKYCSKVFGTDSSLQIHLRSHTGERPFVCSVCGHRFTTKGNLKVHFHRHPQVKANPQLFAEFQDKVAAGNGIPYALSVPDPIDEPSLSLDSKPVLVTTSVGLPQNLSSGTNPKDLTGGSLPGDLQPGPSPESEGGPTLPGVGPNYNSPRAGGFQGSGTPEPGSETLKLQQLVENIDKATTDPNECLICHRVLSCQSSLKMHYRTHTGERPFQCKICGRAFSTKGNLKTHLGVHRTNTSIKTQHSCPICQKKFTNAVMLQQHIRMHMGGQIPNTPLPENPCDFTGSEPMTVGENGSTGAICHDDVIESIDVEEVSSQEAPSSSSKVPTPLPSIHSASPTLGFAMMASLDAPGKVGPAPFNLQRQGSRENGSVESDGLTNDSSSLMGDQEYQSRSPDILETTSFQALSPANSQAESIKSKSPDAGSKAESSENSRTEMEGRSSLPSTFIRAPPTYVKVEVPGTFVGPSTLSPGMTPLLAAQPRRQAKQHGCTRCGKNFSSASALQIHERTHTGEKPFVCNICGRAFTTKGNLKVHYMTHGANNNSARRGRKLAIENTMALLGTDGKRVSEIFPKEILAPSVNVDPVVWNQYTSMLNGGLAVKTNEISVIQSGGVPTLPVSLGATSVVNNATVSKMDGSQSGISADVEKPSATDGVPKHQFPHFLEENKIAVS
T2 sequence (Q96SW2 whole entry): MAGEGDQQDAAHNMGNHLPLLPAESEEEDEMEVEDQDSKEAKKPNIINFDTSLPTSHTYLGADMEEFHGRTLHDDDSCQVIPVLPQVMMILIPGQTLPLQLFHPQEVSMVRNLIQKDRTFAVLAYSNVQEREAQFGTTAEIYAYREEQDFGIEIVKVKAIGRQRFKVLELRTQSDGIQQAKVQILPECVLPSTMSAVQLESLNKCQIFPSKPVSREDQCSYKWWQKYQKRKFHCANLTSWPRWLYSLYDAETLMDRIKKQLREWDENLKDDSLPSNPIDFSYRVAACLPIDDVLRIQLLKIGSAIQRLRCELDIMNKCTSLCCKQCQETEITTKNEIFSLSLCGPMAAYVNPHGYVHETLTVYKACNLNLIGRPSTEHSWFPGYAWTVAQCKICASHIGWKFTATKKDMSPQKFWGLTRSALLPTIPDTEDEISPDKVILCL
T2 sequence (Q16531 whole entry partner): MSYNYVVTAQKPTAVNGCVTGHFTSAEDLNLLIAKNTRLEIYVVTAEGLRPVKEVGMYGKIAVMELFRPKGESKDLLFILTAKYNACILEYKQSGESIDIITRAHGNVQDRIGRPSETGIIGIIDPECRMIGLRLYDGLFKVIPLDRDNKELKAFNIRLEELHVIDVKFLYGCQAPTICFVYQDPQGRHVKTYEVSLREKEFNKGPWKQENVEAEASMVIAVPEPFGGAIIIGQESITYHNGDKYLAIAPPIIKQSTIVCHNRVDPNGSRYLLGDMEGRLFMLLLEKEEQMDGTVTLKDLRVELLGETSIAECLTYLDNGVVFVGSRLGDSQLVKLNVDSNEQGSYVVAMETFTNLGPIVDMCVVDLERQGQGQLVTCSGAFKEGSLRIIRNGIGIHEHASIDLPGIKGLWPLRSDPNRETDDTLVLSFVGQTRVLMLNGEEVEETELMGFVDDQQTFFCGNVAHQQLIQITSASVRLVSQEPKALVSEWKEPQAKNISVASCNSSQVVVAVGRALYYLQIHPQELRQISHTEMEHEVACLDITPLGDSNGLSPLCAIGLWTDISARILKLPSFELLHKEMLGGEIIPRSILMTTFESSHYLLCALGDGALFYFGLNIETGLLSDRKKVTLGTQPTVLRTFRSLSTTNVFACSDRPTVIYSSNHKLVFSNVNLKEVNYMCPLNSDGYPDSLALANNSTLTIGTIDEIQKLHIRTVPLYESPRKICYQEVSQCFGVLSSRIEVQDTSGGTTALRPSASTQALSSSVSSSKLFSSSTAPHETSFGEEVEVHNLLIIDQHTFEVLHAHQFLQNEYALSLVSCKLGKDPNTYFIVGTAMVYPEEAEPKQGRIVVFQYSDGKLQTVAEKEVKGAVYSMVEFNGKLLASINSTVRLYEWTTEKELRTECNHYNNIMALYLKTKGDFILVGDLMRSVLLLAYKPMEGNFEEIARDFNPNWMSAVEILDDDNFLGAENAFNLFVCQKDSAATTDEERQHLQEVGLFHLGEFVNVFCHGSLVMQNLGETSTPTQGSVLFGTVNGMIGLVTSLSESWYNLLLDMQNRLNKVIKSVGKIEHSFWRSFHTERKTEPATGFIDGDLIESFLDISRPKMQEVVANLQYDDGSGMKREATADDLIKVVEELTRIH
T1 sequence (Q13422 whole entry): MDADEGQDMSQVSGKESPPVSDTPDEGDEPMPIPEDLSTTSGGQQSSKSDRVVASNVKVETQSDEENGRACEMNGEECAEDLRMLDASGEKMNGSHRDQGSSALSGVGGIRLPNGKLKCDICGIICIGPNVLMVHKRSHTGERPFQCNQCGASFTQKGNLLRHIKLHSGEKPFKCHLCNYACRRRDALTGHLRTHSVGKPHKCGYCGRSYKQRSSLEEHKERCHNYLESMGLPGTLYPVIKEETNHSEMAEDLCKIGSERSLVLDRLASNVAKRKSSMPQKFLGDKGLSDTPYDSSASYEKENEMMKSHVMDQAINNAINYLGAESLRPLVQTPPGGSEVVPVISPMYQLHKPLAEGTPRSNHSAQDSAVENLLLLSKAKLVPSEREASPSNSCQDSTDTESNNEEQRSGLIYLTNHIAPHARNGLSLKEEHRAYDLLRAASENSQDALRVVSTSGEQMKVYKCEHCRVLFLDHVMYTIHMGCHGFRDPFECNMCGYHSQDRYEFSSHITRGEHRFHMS
T1 sequence (Q96SW2 whole entry): as the sequence (Q96SW2 whole entry) above
T1 sequence (Q16531 whole entry partner): as the sequence (Q16531 whole entry partner) above

SMILES	Dmax (HiBiT-tagged IKZF1 [1]; [3]) [%]	Dmax (HiBiT-tagged IKZF1 [1]; [4]) [%]	DC50 (HiBiT-tagged IKZF1 [1]; [5]) [nM]	DC50 (HiBiT-tagged IKZF1 [1]; [6]) [nM]	Dmax (HiBiT-tagged SALL4; [7]) [%]	Dmax (HiBiT-tagged SALL4; [8]) [%]	DC50 (HiBiT-tagged SALL4; [9]) [nM]	DC50 (HiBiT-tagged SALL4; [10]) [nM]	further results
N#Cc1ccc(N2CCN(Cc3ccc(Cc4ccc5c6c(cc(F)cc46)C(=O)N5[C@@H]4CCC(=O)NC4=O)cc3)CC2)c(F)c1 (single isomer, unassigned) [Compound 9-A]	89.9	93.1	0.23	0.185	55.2	57	328	292	DC50 (HiBiT-tagged IKZF1 [2]; [11]): ~8 nM; Dmax (HiBiT-tagged IKZF1 [2]; [11]): ~68%; DC50 (HiBiT-tagged IKZF1 [2]; after 4 hours of incubation): 0.6 nM; Dmax (HiBiT-tagged IKZF1 [2]; after 4 hours of incubation): 88%
N#Cc1ccc(N2CCN(Cc3ccc(COc4cccc5c4CN([C@H]4CCC(=O)NC4=O)C5=O)cc3)CC2)c(F)c1 [CC-92480, reference compound]	–	–	–	–	–	–	–	–	Dmax (HiBiT-tagged IKZF1 [1]; Table 2; HT-1080 IKZF1 HiBiT reporter cells; all compounds tested on the same day): 95.5%; DC50 (HiBiT-tagged IKZF1 [1]; read-out: HiBiT IKZF1: DC50; Table 2; HT-1080 IKZF1 HiBiT reporter cells; all compounds tested on the same day): 0.105 nM; Dmax (HiBiT-tagged SALL4; Table 2; HT-1080 SALL4 HiBiT reporter cells; all compounds tested on the same day): 75.8%; DC50 (HiBiT-tagged SALL4; read-out: HiBiT SALL4: DC50; Table 2; HT-1080 SALL4 HiBiT reporter cells; all compounds tested on the same day): 3.4 nM; IC50 (MM.1S cells; Homo sapiens, MM1.S, antiproliferative, 120 hours incubation, CellTiter-Glo, read-out: MM.1S: IC50): 0.041 nM; Ymin (MM.1S cells; lowest cell viability read normalized to DMSO control, MM.1S, 120 hours): 7.5 (n = 7) %
N#Cc1ccc2c(c1)OC[C@H]1CN(Cc3ccc(Cc4ccc5c6c(cc(F)cc46)C(=O)N5C4CCC(=O)NC4=O)cc3)CCN21 (stereo partly shown) [Compound 1]	93.2	–	0.025	–	57.4	–	117	–	–
N#Cc1ccc2c(c1)OC[C@H]1CN(Cc3ccc(Cc4ccc5c6c(cc(F)cc46)C(=O)N5C4CCC(=O)NC4=O)cn3)CCN21 (stereo partly shown) [Compound 2]	91.8	–	0.022	–	53.2	–	400	–	–
N#Cc1ccc2c(c1)OC[C@H]1CN(Cc3ccc(Cc4ccc5c6c(cccc46)C(=O)N5C4CCC(=O)NC4=O)cc3)CCN21 (stereo partly shown) [Compound 3]	93.3	–	0.038	–	68	–	2.4	–	–
N#Cc1cnc2c(c1)OC[C@H]1CN(Cc3ccc(Cc4ccc5c6c(cccc46)C(=O)N5C4CCC(=O)NC4=O)c(F)c3)CCN21 (stereo partly shown) [Compound 4]	93.5	–	0.026	–	68.6	–	1	–	–
N#Cc1ccc2c(c1)OC[C@H]1CN(Cc3ccc(Cc4ccc5c6c(cccc46)C(=O)N5C4CCC(=O)NC4=O)cc3)CCN21 (stereo partly shown) [Compound 5]	–	–	0.017	–	–	–	2	–	HiBiT IKZF1: Dmax (HiBiT-tagged IKZF1 [1]; Table 1; HT-1080 IKZF1 HiBiT reporter cells; maximum percentage of protein degradation): 94.1%; HiBiT SALL4: Dmax (HiBiT-tagged SALL4; Table 1; HT-1080 SALL4 HiBiT reporter cells; maximum percentage of protein degradation): 76.5%
O=C1CCC(N2C(=O)c3cc(F)cc4c(Cc5ccc(CN6CC(N7CCOCC7)C6)cc5F)ccc2c34)C(=O)N1 (stereo not shown) [Compound 6]	74.6	–	0.74	–	33.7	–	> 10000	–	–
O=C1CCC(N2C(=O)c3cc(F)cc4c(Cc5ccc(CN6CCC7(CCCO7)CC6)cc5F)ccc2c34)C(=O)N1 (stereo not shown) [Compound 7]	86.3	–	0.13	–	45.4	–	> 10000	–	–
O=C1CCC(N2C(=O)c3cc(F)cc4c(Cc5ccc(CN6CCOCC6)cc5F)ccc2c34)C(=O)N1 (stereo not shown) [Compound 8]	75.2	–	2.37	–	34.9	–	> 10000	–	–
N#Cc1cnc2c(c1)OC[C@H]1CN(Cc3ccc(Cc4ccc5c6c(cc(F)cc46)C(=O)N5C4CCC(=O)NC4=O)c(F)c3)CCN21 (stereo partly shown) [Compound 10]	88.3	–	0.065	–	29.4	–	> 10000	–	–
N#Cc1ccc(N2CCN(Cc3ccc(Cc4ccc5c6c(ccc(F)c46)C(=O)N5C4CCC(=O)NC4=O)cc3)CC2)c(F)c1 (stereo not shown) [Compound 14]	–	89.9	–	1	–	79.3	–	2	–
N#Cc1ccc(N2CCN(Cc3ccc(Cc4ccc5c6c(cc(Cl)cc46)C(=O)N5C4CCC(=O)NC4=O)cc3)CC2)c(F)c1 (stereo not shown) [Compound 17]	–	41.1	–	> 10	–	11.4	–	> 10000	–
N#Cc1ccc(N2CCN(Cc3ccc(Cc4ccc5c6c(cccc46)C(=O)N5C4CCC(=O)NC4=O)c(F)c3)CC2)c(F)c1 (stereo not shown) [Compound 18]	–	96.1	–	0.014	–	80.5	–	< 0.3	–
O=C1CCC(N2C(=O)c3cccc4c(Cc5ccc(CN6CCOCC6)cc5)ccc2c34)C(=O)N1 (stereo not shown) [Compound 19]	–	93.5	–	0.157	–	64.6	–	5.2	–

Second part, led by results:

Dmax (HiBiT-tagged IKZF1 [1]; [3]) [%]	Dmax (HiBiT-tagged IKZF1 [1]; [4]) [%]	DC50 (HiBiT-tagged IKZF1 [1]; [5]) [nM]	DC50 (HiBiT-tagged IKZF1 [1]; [6]) [nM]	Dmax (HiBiT-tagged SALL4; [7]) [%]	Dmax (HiBiT-tagged SALL4; [8]) [%]	DC50 (HiBiT-tagged SALL4; [9]) [nM]	DC50 (HiBiT-tagged SALL4; [10]) [nM]	SMILES	further results
66.2	–	2.19	–	33.9	–	> 10000	–	O=C1CCC(N2C(=O)c3cc(F)cc4c(Cc5ccc(CN6CCC(N7CCOCC7)CC6)cc5F)ccc2c34)C(=O)N1 (stereo not shown) [Compound 11]	–
69.3	–	5.89	–	32.5	–	> 10000	–	O=C1CCC(N2C(=O)c3cc(F)cc4c(Cc5ccc(CN6CCOCC6)cc5)ccc2c34)C(=O)N1 (stereo not shown) [Compound 12]	–
87.3	–	1.22	–	49.1	–	> 10000	–	CC(C)(C)N1CCN(Cc2ccc(Cc3ccc4c5c(cc(F)cc35)C(=O)N4C3CCC(=O)NC3=O)c(F)c2)CC1 (stereo not shown) [Compound 13]	–
–	60.1	–	39.1	–	28.5	–	> 10000	N#Cc1ccc(N2CCN(Cc3ccc(Cc4ccc5c6c(c(F)ccc46)C(=O)N5C4CCC(=O)NC4=O)cc3)CC2)c(F)c1 (stereo not shown) [Compound 15]	–
–	92.2	–	1.23	–	65.8	–	772	N#Cc1ccc(N2CCN(Cc3ccc(Cc4ccc5c6c(cc(Br)cc46)C(=O)N5C4CCC(=O)NC4=O)cc3)CC2)c(F)c1 (stereo not shown) [Compound 16]	–
–	96.9	–	0.014	–	79.3	–	< 0.3	N#Cc1ccc(N2CCN(Cc3ccc(Cc4ccc5c6c(cccc46)C(=O)N5C4CCC(=O)NC4=O)cc3)CC2)c(F)c1 (stereo not shown) [Compound 20]	–
